Columns and labels:
[1] = tested on: SW48 (Dukes' Type C, Grade IV, noninvasive colorectal adenocarcinoma); experiment: MTT cytotoxicity, SW48 cells
Experimental: (§1) The compounds were solubilized in dimethyl sulfoxide (DMSO, Fischer Chemical, NJ, USA) at 50,000 μg/mL and stored at −20°C until use. From the stock solution, six serial 1:2 double dilutions of each compound were prepared to start with concentrations of 100, 50, 25, 12.5, 6.25, and 3.125 μg/mL, respectively. 5-FU, one of the conventional drugs to treat CRC [34], was used as an antitumor compound control at concentrations ranging between 800 and 0.625 μM.
(§2) SW948 (Dukes' Type C, Grade III, premetastatic colorectal adenocarcinoma—CCL-237), SW48 (Dukes' Type C, Grade IV, noninvasive colorectal adenocarcinoma—CCL231), and SW620 (Dukes' Type C, Grade IV invasive colorectal adenocarcinoma—CCL227) (American Type Culture Collection Manassas, VA, USA) were maintained in standard conditions at 37°C, without a CO2 atmosphere. PBMCs and MCRT were used as nontumoral control cells. PBMCs were obtained by healthy donors, separated using Histopaque-1077 (Sigma-Aldrich) and cultured in RPMI-1640 medium (Sigma-Aldrich) supplemented with 10% SFB and 1% penicillin/streptomycin [46]. In turn, MCRT were obtained from healthy BALB/c mice; for this, mice were euthanized with CO2 after previous sedation, the colorectal tissue removed, cleaned up, and cut into 2 × 2 mm pieces, suspended in supplemented DMEM, and used immediately after collection. […] Moreover, the inclusion of PBMC also served to assess the systemic toxicity of FQAS.
(§3) The cytotoxic activity of synthesized FQASs and QASs was studied by measuring cell viability/mortality, determined with the MTT (3-(4,5-dimethylthiazol-2-yl)-2,5-diphenyl tetrazole bromide) method (VWR Chemicals and Reagents Avantor), upon exposure of each cell line to six serial dilutions of the different compounds independently. Unexposed cells were included as viability controls, and cells exposed to 5-FU were included as cytotoxicity controls. Briefly, cells were adjusted to 200,000 cells/mL in the corresponding supplemented culture medium, and 100 μL (20,000 cells/well) were dispensed into each 96-well cell culture plate (Nunc, Thermo Fisher Scientific). Twelve hours after seeding the monolayer, 100 μL dilution of each compound was added to each well; the plates containing CRC were incubated at 37°C in the absence of CO2, while plates with PBMCs and MCRT were incubated at 37°C and 5% CO2 atmosphere. For MCRT, each piece was placed into each well of a 96-well plate and exposed to each dilution of the FQASs and QASs. After 48 h of incubation, 30 μL/well of MTT (5 mg/mL) was added, and plates were left at 37°C for 3 h, protected from light. After this time, 100 μL/well of DMSO was added to solubilize the formazan crystals formed. Plates were read at 570 nm on a Varioskan plate reader (Thermo Fisher), and nonspecific absorbance was corrected by subtracting the optical densities (OD) of the blank solutions corresponding to the supplemented culture media (RPMI 1640, DMEM, or L-15 media) and 0.5% DMSO. Each concentration of the FQASs, QASs, and controls was evaluated in duplicate in three independent experiments.
(§4) The percentages of viability (equation (1)) and mortality (equation (2)) were calculated with the net OD:(1) % viability=OD treated cell÷nontreated cells×100, (2) % mortality=100−% viability.
(§5) The %mortality data for each compound concentration was recorded, and the median cytotoxic concentration (CC50), corresponding to the concentration at which 50% of cell death occurs, was calculated using GraphPad Prism 8 software (GraphPad, Software, Inc., La Jolla, CA, USA). […] Lastly, the index of selectivity (IS) was calculated by dividing the CC50 value obtained for control cells (MCRT and PBMCs) by the CC50 value obtained for each CRC cell phenotype using the formula: IS = CC50 (MCRT or PBMC) ÷ CC50 (SW948, SW48 or SW620).

[2] = tested on: SW948 (Dukes' Type C, Grade III, premetastatic colorectal adenocarcinoma); experiment: MTT cytotoxicity, SW948 cells
Experimental: as §1, §2, §3, §4, §5

[3] = tested on: SW620 (Dukes' Type C, Grade IV invasive colorectal adenocarcinoma); experiment: MTT cytotoxicity, SW620 cells
Experimental: as §1, §2, §3, §4, §5

[4] = tested on: CRC cell lines SW48, SW620, and SW948; experiment: MTT cytotoxicity across CRC cell lines (pooled statements, selectivity between lines); type: cell-based
Experimental: as §1, §2, §3, §4
The %mortality data for each compound concentration was recorded, and the median cytotoxic concentration (CC50), corresponding to the concentration at which 50% of cell death occurs, was calculated using GraphPad Prism 8 software (GraphPad, Software, Inc., La Jolla, CA, USA). […]

[5] = tested on: healthy murine colorectal tissue (MCRT); experiment: Ex vivo MTT cytotoxicity, healthy murine colorectal tissue; type: cell-based, BALB/c mice
Experimental: as §1, §2, §3, §4, §5

[6] = as above; type: cell-based, BALB/c mice; conditions: BALB/c, mouse, healthy murine colorectal tissue (MCRT) pieces, ex vivo, nontumoral control, MTT, 48 h, mean ± SD
Experimental: as §1, §2, §3, §4, §5

[7] = tested on: peripheral blood mononuclear cells (PBMC); experiment: MTT cytotoxicity, peripheral blood mononuclear cells; type: cell-based; conditions: PBMCs
Experimental: as §1, §2, §3, §4, §5

[8] = as above; type: cell-based; conditions: human, peripheral blood mononuclear cells (PBMC); PBMC, nontumoral control, MTT, 48 h, mean ± SD
Experimental: as §1, §2, §3, §4, §5

C[N+](C)(CI)CCCCC=C(c1ccccc1)c1ccccc1 [Compound 16]
CC50 ([1]; Homo sapiens, SW48, 48 h, SW48 cells, MTT, 48 h, mean ± SD): 65.2 ± 3.7 µM
Index of selectivity MCRT / SW48 ([1]; IS = CC50 MCRT ÷ CC50 SW48): 2.1
Index of selectivity PBMC / SW48 ([1]; IS = CC50 PBMC ÷ CC50 SW48): 0.6
CC50 ([2]; Homo sapiens, SW948, 48 h, SW948 cells, MTT, 48 h, mean ± SD): 71 ± 12.4 µM
Index of selectivity MCRT / SW948 ([2]; IS = CC50 MCRT ÷ CC50 SW948): 1.9
Index of selectivity PBMC / SW948 ([2]; IS = CC50 PBMC ÷ CC50 SW948): 0.6
CC50 ([3]; Homo sapiens, 48 h): 72.9 ± 4.2 µM
Index of selectivity MCRT / SW620 ([3]; IS = CC50 MCRT ÷ CC50 SW620): 1.9
Index of selectivity PBMC / SW620 ([3]; IS = CC50 PBMC ÷ CC50 SW620): 0.5
Index of selectivity SW48 vs. SW620 ([4]; IS = CC50 SW48 ÷ CC50 SW620): 0.9
Index of selectivity SW948 vs. SW48 ([4]; IS = CC50 SW948 ÷ CC50 SW48): 1.1
Index of selectivity SW948 vs. SW620 ([4]; IS = CC50 SW948 ÷ CC50 SW620): 1.0
cytotoxicity in words [5]: noncytotoxic
CC50 at 48 h [6]: 135 ± 11.8 µM
cytotoxicity in words [7]: highly cytotoxic
CC50 at 48 h [8]: 38.8 ± 5.6 µM
